Measured values published in patent US11019818B2, “Herbicidal 3-substituted lactams” (FMC Corporation, priority 2017, dated 2021).

How the values were obtained:
Type in all cases: in vivo
[1] = system: blackgrass (Alopecurus myosuroides); experiment: Test A postemergence, blackgrass; conditions: 0 to 100 scale (0 no effect, 100 complete control), approx. 10 d
Description: (§1) Seeds of plant species selected from barnyardgrass (Echinochloa crus-galli), kochia (Kochia scoparia), ragweed (common ragweed, Ambrosia elatior), ryegrass, Italian (Italian ryegrass, Lolium multiflorum), foxtail, green (green foxtail, Setaria viridis), and pigweed (Amaranthus retroflexus) were planted into a blend of loam soil and sand and treated preemergence with a directed soil spray using test chemicals formulated in a non-phytotoxic solvent mixture which included a surfactant. At the same time, plants selected from these weed species and also wheat (Triticum aestivum), corn (Zea mays), blackgrass (Alopecurus myosuroides), and galium (catchweed bedstraw, Galium aparine) were planted in pots containing the same blend of loam soil and sand and treated with postemergence applications of test chemicals formulated in the same manner. Plants ranged in height from 2 to 10 cm and were in the one- to two-leaf stage for the postemergence treatment. Treated plants and untreated controls were maintained in a greenhouse for approximately 10 d, after which time all treated plants were compared to untreated controls and visually evaluated for injury. Plant response ratings, summarized in Table A, are based on a 0 to 100 scale where 0 is no effect and 100 is complete control. A dash (-) response means no test result.

kochia (Kochia scoparia) [2] = experiment: Test A postemergence, kochia; conditions: 0 to 100 scale (0 no effect, 100 complete control), approx. 10 d
Description: as §1

[3] = system: ragweed (common ragweed, Ambrosia elatior); experiment: Test A postemergence, ragweed; conditions: 0 to 100 scale (0 no effect, 100 complete control), approx. 10 d
Description: as §1

[4] = system: pigweed (Amaranthus retroflexus); experiment: Test A preemergence, pigweed; conditions: 0 to 100 scale (0 no effect, 100 complete control), approx. 10 d
Description: as §1

[5] = system: sedge, umbrella (small-flower umbrella sedge, Cyperus difformis); experiment: Test B flooded paddy test, umbrella sedge; conditions: Flood, 250 g ai/ha; applied to paddy water at 2-leaf stage; visual rating after 13 to 15 d; scale 0 to 100, 0 is no effect, 100 is complete control
Protocol: (§2) Plant species in the flooded paddy test selected from rice (Oryza sativa), sedge, umbrella (small-flower umbrella sedge, Cyperus difformis), ducksalad (Heteranthera limosa), and barnyardgrass (Echinochloa crus-galli) were grown to the 2-leaf stage for testing. At time of treatment, test pots were flooded to 3 cm above the soil surface, treated by application of test compounds directly to the paddy water, and then maintained at that water depth for the duration of the test. Treated plants and controls were maintained in a greenhouse for 13 to 15 d, after which time all species were compared to controls and visually evaluated. Plant response ratings, summarized in Table B, are based on a scale of 0 to 100 where 0 is no effect and 100 is complete control. A dash (-) response means no test result.

[6] = system: foxtail, green (green foxtail, Setaria viridis); experiment: Test A postemergence, green foxtail; conditions: 0 to 100 scale (0 no effect, 100 complete control), approx. 10 d
Description: as §1

[7] = system: ragweed (common ragweed, Ambrosia elatior); experiment: Test A preemergence, ragweed; conditions: 0 to 100 scale (0 no effect, 100 complete control), approx. 10 d
Description: as §1

rice (Oryza sativa) = experiment: Test B flooded paddy test, rice; conditions: Flood, 250 g ai/ha; applied to paddy water at 2-leaf stage; visual rating after 13 to 15 d; scale 0 to 100, 0 is no effect, 100 is complete control
Protocol: as §2

[8] = system: ryegrass, Italian (Italian ryegrass, Lolium multiflorum); experiment: Test A preemergence, Italian ryegrass; conditions: 0 to 100 scale (0 no effect, 100 complete control), approx. 10 d
Description: as §1

[9] = system: galium (catchweed bedstraw, Galium aparine); experiment: Test A postemergence, galium; conditions: 0 to 100 scale (0 no effect, 100 complete control), approx. 10 d
Description: as §1

[10] = system: pigweed (Amaranthus retroflexus); experiment: Test A postemergence, pigweed; conditions: 0 to 100 scale (0 no effect, 100 complete control), approx. 10 d
Description: as §1

[11] = system: ryegrass, Italian (Italian ryegrass, Lolium multiflorum); experiment: Test A postemergence, Italian ryegrass; conditions: 0 to 100 scale (0 no effect, 100 complete control), approx. 10 d
Description: as §1

[12] = system: barnyardgrass (Echinochloa crus-galli); experiment: Test A preemergence, barnyardgrass; conditions: 0 to 100 scale (0 no effect, 100 complete control), approx. 10 d
Description: as §1

[13] = system: wheat (Triticum aestivum); experiment: Test A postemergence, wheat; conditions: 0 to 100 scale (0 no effect, 100 complete control), approx. 10 d
Description: as §1

[14] = system: ducksalad (Heteranthera limosa); experiment: Test B flooded paddy test, ducksalad; conditions: Flood, 250 g ai/ha; applied to paddy water at 2-leaf stage; visual rating after 13 to 15 d; scale 0 to 100, 0 is no effect, 100 is complete control
Protocol: as §2

kochia (Kochia scoparia) [15] = experiment: Test A preemergence, kochia; conditions: 0 to 100 scale (0 no effect, 100 complete control), approx. 10 d
Description: as §1

[16] = system: foxtail, green (green foxtail, Setaria viridis); experiment: Test A preemergence, green foxtail; conditions: 0 to 100 scale (0 no effect, 100 complete control), approx. 10 d
Description: as §1

[17] = system: barnyardgrass (Echinochloa crus-galli); experiment: Test A postemergence, barnyardgrass; conditions: 0 to 100 scale (0 no effect, 100 complete control), approx. 10 d
Description: as §1

[18] = system: barnyardgrass (Echinochloa crus-galli); experiment: Test B flooded paddy test, barnyardgrass; conditions: Flood, 250 g ai/ha; applied to paddy water at 2-leaf stage; visual rating after 13 to 15 d; scale 0 to 100, 0 is no effect, 100 is complete control
Protocol: as §2

corn (Zea mays) = experiment: Test A postemergence, corn; conditions: 0 to 100 scale (0 no effect, 100 complete control), approx. 10 d
Description: as §1

SMILES	Plant response rating, Blackgrass ([1]; 31 g ai/ha)	Plant response rating, Blackgrass ([1]; 125 g ai/ha)	Plant response rating, Kochia (kochia (Kochia scoparia) [2]; 31 g ai/ha)	Plant response rating, Kochia (kochia (Kochia scoparia) [2]; 125 g ai/ha)	Plant response rating, Ragweed ([3]; 31 g ai/ha)	Plant response rating, Ragweed ([3]; 125 g ai/ha)	Plant response rating, Pigweed ([4]; 31 g ai/ha)	Plant response rating, Pigweed ([4]; 125 g ai/ha)	Plant response rating, Sedge, Umbrella [5]	Plant response rating, Foxtail, Green ([6]; 31 g ai/ha)	Plant response rating, Foxtail, Green ([6]; 125 g ai/ha)	Plant response rating, Ragweed ([7]; 31 g ai/ha)	Plant response rating, Ragweed ([7]; 125 g ai/ha)	Plant response rating, Rice (rice (Oryza sativa))	Plant response rating, Ryegrass, Italian ([8]; 31 g ai/ha)	Plant response rating, Ryegrass, Italian ([8]; 125 g ai/ha)	Plant response rating, Galium ([9]; 31 g ai/ha)	Plant response rating, Galium ([9]; 125 g ai/ha)	Plant response rating, Pigweed ([10]; 31 g ai/ha)	Plant response rating, Pigweed ([10]; 125 g ai/ha)	further results
CC(=O)[C@@]1(C(=O)Nc2cccc(F)c2F)C(=O)N(C)C[C@@H]1c1ccc(C(F)(F)F)cc1 [Compound 1, (3S,4R)-3-acetyl-N-(2,3-difluorophenyl)-1-methyl-2-oxo-4-[4-(trifluoromethyl)phenyl]-3-pyrrolidinecarboxamide]	0	50	20	70	0	40	50	90	0	50	90	20	70	0	30	60	50	60	30	80	Plant response rating, Ryegrass, Italian ([11]; 31 g ai/ha): 60; Plant response rating, Ryegrass, Italian ([11]; 125 g ai/ha): 80; Plant response rating, Barnyardgrass ([12]; 31 g ai/ha): 80; Plant response rating, Barnyardgrass ([12]; 125 g ai/ha): 90; Plant response rating, Wheat ([13]; 31 g ai/ha): 20; Plant response rating, Wheat ([13]; 125 g ai/ha): 50; Plant response rating, Ducksalad [14]: 90; Plant response rating, Kochia (kochia (Kochia scoparia) [15]; 31 g ai/ha): 40; Plant response rating, Kochia (kochia (Kochia scoparia) [15]; 125 g ai/ha): 80; Plant response rating, Foxtail, Green ([16]; 31 g ai/ha): 90; Plant response rating, Foxtail, Green ([16]; 125 g ai/ha): 90; Plant response rating, Barnyardgrass ([17]; 31 g ai/ha): 70; Plant response rating, Barnyardgrass ([17]; 125 g ai/ha): 90; Plant response rating, Barnyardgrass [18]: 70; Plant response rating, Corn (corn (Zea mays); 31 g ai/ha): 20; Plant response rating, Corn (corn (Zea mays); 125 g ai/ha): 80
CC(=O)OC[C@@]1(C(=O)Nc2cccc(F)c2F)C(=O)N(C)C[C@@H]1c1ccc(C(F)(F)F)cc1 [Compound 2, (3S,4R)-3-[(acetyloxy)methyl]-N-(2,3-difluorophenyl)-1-methyl-2-oxo-4-[4-(trifluoromethyl)phenyl]-3-pyrrolidincarboxamide]	0	10	0	40	0	40	20	80	0	20	70	0	30	30	0	10	0	40	20	40	Plant response rating, Ryegrass, Italian ([11]; 31 g ai/ha): 20; Plant response rating, Ryegrass, Italian ([11]; 125 g ai/ha): 50; Plant response rating, Barnyardgrass ([12]; 31 g ai/ha): 50; Plant response rating, Barnyardgrass ([12]; 125 g ai/ha): 80; Plant response rating, Wheat ([13]; 31 g ai/ha): 0; Plant response rating, Wheat ([13]; 125 g ai/ha): 20; Plant response rating, Ducksalad [14]: 95; Plant response rating, Kochia (kochia (Kochia scoparia) [15]; 31 g ai/ha): 20; Plant response rating, Kochia (kochia (Kochia scoparia) [15]; 125 g ai/ha): 50; Plant response rating, Foxtail, Green ([16]; 31 g ai/ha): 60; Plant response rating, Foxtail, Green ([16]; 125 g ai/ha): 90; Plant response rating, Barnyardgrass ([17]; 31 g ai/ha): 0; Plant response rating, Barnyardgrass ([17]; 125 g ai/ha): 50; Plant response rating, Barnyardgrass [18]: 65; Plant response rating, Corn (corn (Zea mays); 31 g ai/ha): 0; Plant response rating, Corn (corn (Zea mays); 125 g ai/ha): 40
CN1C[C@H](c2ccc(C(F)(F)F)cc2)[C@](CO)(C(=O)Nc2cccc(F)c2F)C1=O [Compound 4, (3S,4R)—N-(2,3-difluorophenyl)-3-(hydroxymethyl)-1-methyl-2-oxo-4-[4-(trifluoromethyl)phenyl]-3-pyrrolidinecarboxamide]	0	40	0	60	0	0	0	90	0	10	60	0	0	0	0	50	20	40	30	70	Plant response rating, Ryegrass, Italian ([11]; 31 g ai/ha): 0; Plant response rating, Ryegrass, Italian ([11]; 125 g ai/ha): 50; Plant response rating, Barnyardgrass ([12]; 31 g ai/ha): 30; Plant response rating, Barnyardgrass ([12]; 125 g ai/ha): 90; Plant response rating, Wheat ([13]; 31 g ai/ha): 0; Plant response rating, Wheat ([13]; 125 g ai/ha): 20; Plant response rating, Ducksalad [14]: 95; Plant response rating, Kochia (kochia (Kochia scoparia) [15]; 31 g ai/ha): 0; Plant response rating, Kochia (kochia (Kochia scoparia) [15]; 125 g ai/ha): 40; Plant response rating, Foxtail, Green ([16]; 31 g ai/ha): 50; Plant response rating, Foxtail, Green ([16]; 125 g ai/ha): 90; Plant response rating, Barnyardgrass ([17]; 31 g ai/ha): 0; Plant response rating, Barnyardgrass ([17]; 125 g ai/ha): 60; Plant response rating, Barnyardgrass [18]: 50; Plant response rating, Corn (corn (Zea mays); 31 g ai/ha): 0; Plant response rating, Corn (corn (Zea mays); 125 g ai/ha): 50
CN1C[C@H](c2ccc(C(F)(F)F)cc2)[C@@](CO)(C(=O)Nc2cccc(F)c2F)C1=O [Compound 5, (3R,4R)—N-(2,3-difluorophenyl)-3-(hydroxymethyl)-1-methyl-2-oxo-4-[4-(trifluoromethyl)phenyl]-3-pyrrolidinecarboxamide]	0	30	30	70	0	40	0	60	0	30	80	0	60	25	10	80	40	40	30	50	Plant response rating, Ryegrass, Italian ([11]; 31 g ai/ha): 20; Plant response rating, Ryegrass, Italian ([11]; 125 g ai/ha): 50; Plant response rating, Barnyardgrass ([12]; 31 g ai/ha): 80; Plant response rating, Barnyardgrass ([12]; 125 g ai/ha): 90; Plant response rating, Wheat ([13]; 31 g ai/ha): 0; Plant response rating, Wheat ([13]; 125 g ai/ha): 30; Plant response rating, Ducksalad [14]: 90; Plant response rating, Kochia (kochia (Kochia scoparia) [15]; 31 g ai/ha): 0; Plant response rating, Kochia (kochia (Kochia scoparia) [15]; 125 g ai/ha): 60; Plant response rating, Foxtail, Green ([16]; 31 g ai/ha): 70; Plant response rating, Foxtail, Green ([16]; 125 g ai/ha): 90; Plant response rating, Barnyardgrass ([17]; 31 g ai/ha): 30; Plant response rating, Barnyardgrass ([17]; 125 g ai/ha): 80; Plant response rating, Barnyardgrass [18]: 65; Plant response rating, Corn (corn (Zea mays); 31 g ai/ha): 0; Plant response rating, Corn (corn (Zea mays); 125 g ai/ha): 60
